What is called Ki is the dissociation constant of the complex between target and ligand, obtained from inhibition or displacement.

For this experiment, the target named is Coagulation factor XI (Homo sapiens, UniProt P03951). Nature of the experiment: Factor XIa Assay: The effectiveness of a compound of the present invention as an inhibitor of Coagulation Factor XIa can be determined using a relevant purified serine protease, and an appropriate synthetic substrate. The rate of hydrolysis of the chromogenic or fluorogenic substrate by the relevant serine protease was measured both in the absence and presence of compounds of the present invention. Assays were conducted at room temperature or at 37° C. […] A decrease in the rate of fluorescence change in the presence of inhibitor is indicative of enzyme inhibition. Such methods are known to one skilled in the art. […] Times required to achieve equilibration between enzyme and inhibitor were determined in control experiments. Initial velocities of product formation in the absence (Vo) or presence of inhibitor (Vi) were measured. Assuming competitive inhibition, and that unity is negligible compared Km/[S], [I]/e, and [I]/e (where [S], [I], and e respectively represent the total concentrations, of substrate, inhibitor and enzyme), the equilibrium constant (Ki) for dissociation of the inhibitor from the enzyme can be obtained from the dependence of Vo/Vi on [I] shown in the following equation. V o /V i=1+[I]/K iThe activities shown by this assay indicate that the compounds of the invention may be therapeutically useful for treating or preventing various cardiovascular and/or cerebrovascular thromboembolic conditions in patients suffering from unstable angina, acute coronary syndrome, refractory angina, myocardial infarction, transient ischemic attacks, atrial fibrillation, stroke such as thrombotic stroke or embolic stroke, venous thrombosis, coronary and cerebral arterial thrombosis, cerebral and pulmonary embolism, atherosclerosis, deep vein thrombosis, disseminated intravascular coagulation, and reocclusion or restenosis of recanalized vessels.
Coagulation factor XI, sequence (P03951 19-387 limits assumed): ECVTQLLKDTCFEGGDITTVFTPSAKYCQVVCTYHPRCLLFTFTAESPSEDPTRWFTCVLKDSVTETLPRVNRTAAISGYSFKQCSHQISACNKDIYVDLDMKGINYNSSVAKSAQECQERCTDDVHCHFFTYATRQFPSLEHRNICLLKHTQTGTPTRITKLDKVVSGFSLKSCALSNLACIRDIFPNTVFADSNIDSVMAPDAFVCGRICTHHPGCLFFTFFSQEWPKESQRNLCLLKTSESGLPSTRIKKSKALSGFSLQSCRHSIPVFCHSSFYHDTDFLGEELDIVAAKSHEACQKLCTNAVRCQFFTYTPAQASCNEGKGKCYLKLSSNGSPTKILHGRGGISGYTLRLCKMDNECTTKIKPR
Coagulation factor XI, sequence (P03951 388-625 limits assumed): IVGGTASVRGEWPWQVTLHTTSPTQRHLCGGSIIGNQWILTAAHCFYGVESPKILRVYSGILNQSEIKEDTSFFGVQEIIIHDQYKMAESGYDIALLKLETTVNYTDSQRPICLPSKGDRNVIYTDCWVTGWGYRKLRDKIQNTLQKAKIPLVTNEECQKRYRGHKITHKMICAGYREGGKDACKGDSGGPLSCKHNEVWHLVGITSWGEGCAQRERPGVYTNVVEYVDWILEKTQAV
For the compound `COC(=O)Nc1ccc2c(N[C@@H](Cc3ccccc3)C(=O)N3CCC[C@@]4(C3)OC(=O)Nc3ccc(Cl)cc34)nn(C)c2c1`, the Ki is 8.2 µM.
With `COC(=O)Nc1ccc2c(N[C@@H](Cc3ccccc3)C(=O)N3CCC[C@@]4(C3)OC(=O)Nc3ccc(Cl)cc34)noc2c1` the figure was 0.523 µM.
The value for `Nc1ccc(-c2c[nH]c(C(Cc3ccccc3)C(=O)N3CCC[C@@]4(C3)OC(=O)Nc3ccc(Cl)c(F)c34)n2)cn1` (some centres undefined) was 0.353 µM; that for `CC(=O)Nc1ccc(N[C@@H](Cc2ccccc2)C(=O)N2CCC[C@@]3(C2)OC(=O)Nc2ccc(Cl)cc23)cc1` was 10 µM.

These data come from ChEMBL document CHEMBL5725763, “Factor XIa inhibitors” (2018).
